According to patent US20180010188A1, “METHOD FOR DETECTING NONSENSE-MEDIATED RNA DECAY” (The Regents of the University of California, priority 2016, published 2018):

What was measured:
polysome integrity = assay: Polysome fractionation by sucrose density gradient centrifugation; format: cell-based, mouse; settings: 5 hours, DMSO 30
Protocol: In addition to altering gene expression via the IRE1-Xbp1s signaling pathway to retain homeostasis, ER stress also reduces global protein synthesis (Harding et al., 1999. Nature 397: 271-274; Ron D. 2002. J Clin Invest 110: 1383-1388; Wek et al., 2006. Biochem Soc Trans 34: 7-11). The dose of thapsigargin inhibiting NMD was as low as 20 nM, whereas according to the literature, thapsigargin has been widely used at 1 μM to induce ER stress. To assess whether the NMD-inhibiting thapsigargin doses also repressed translation, we performed ribosome fractionation using sucrose density gradient centrifugation and examined polysome integrity as an indicator of translational activity. […] The heavier polysomes (>4 ribosomes) were affected the most and further collapsed with increasing doses of thapsigargin. Polysome disintegration was also accompanied by increasing optical density values of 80S. To quantify the dose effect of thapsigargin, we drew a line from the peak of the disome to the peak of the polysome consisting of roughly 8 ribosomes based on relative elution time. We measured the angle of this line relative to a horizontal line through the disome peak and used the angle as an indicator of polysome integrity. This angle was 30 for DMSO-treated cells and decreased to 0, −18, −20, −30 and −40 in response to increasing thapsigargin concentrations of 0.01, 0.02, 0.05, 0.1 and 0.2 μM, respectively.
For polysome fractionation, 1.5×10^7 N2a cells in 20 ml N2a complete media were plated on 150 mm petri dishes overnight and treated with varying concentrations of thapsigargin the next day. Cycloheximide (Fisher Scientific, cat. no. 50490338) was added at a concentration of 100 μg/ml, and the cells were incubated for 10 min at 37° C. before lysate collection. The cells were washed twice with 10 ml cold 1×PBS containing 100 μg/ml cycloheximide then collected in 4 ml of the same cold PBS solution. The cells were lysed with 0.5 ml lysis buffer (20 mM Tris pH 7.5, 100 mM KCl, 5 mM MgCl2, 2 mM DTT, 100 μg/ml cycloheximide, 1% Triton X-100, 50 u/ml RNaseout and 1×EDTA-free protease inhibitor cocktail). Roughly 400 μl ([…]) of lysate was loaded onto premade sucrose gradients (60% to 15%) and balanced (within 0.5 mg) before ultracentrifugation at 4° C. and 237,000 g (50,000 rpm for a SW55 Ti rotor) for 1.5 hours. Products were carefully removed from the ultracentrifuge and fractionated with the apparatus consisting of the gradient fractionator (Brandel SYN-202), the ISCO absorbance detector (ISCO # UA-6, Lincoln, Nebr.) and the fraction collector (R1 Fraction Collector) at 2.0 sensitivity and 150 cm/h chart speed to record absorbance data and collect fractionations.

core NMD factors = assay: Expression of core NMD factors after thapsigargin; format: cell-based, mouse; settings: 5 hours after thapsigargin treatment (data not shown)
Source text: Thapsigargin is a non-competitive inhibitor of the sarco/endoplasmic reticulum Ca^2+ ATPase (SERCA) (Wictome et al., 1992. Biochem J 283 (Pt 2): 525-529; Lytton et al., 1991. J Biol Chem 266: 17067-17071). Thapsigargin treatment increases intracellular Ca^2+ concentration, which stimulates various Ca^2+ dependent signaling pathways. In fact, Nickless et al. recently reported that intracellular calcium inhibited NMD after administration of thapsigargin (Nickless et al. 2014. Nat Med 20: 961-966). Thapsigargin also induces ER stress. […] The diverging mechanisms reported by these studies were both based on the traditional NMD reporter approach and gene-centric validation. We therefore investigated which of the proposed mechanisms our independent method would support.

## C/C=C(/C)C(=O)O[C@H]1C(C)=C2[C@H]([C@@H]1OC(=O)CCCCCCC)[C@@](C)(OC(C)=O)C[C@H](OC(=O)CCC)[C@@]1(O)[C@H]2OC(=O)[C@@]1(C)O [thapsigargin]
Polysome integrity; 0.01 μM
  angle of disome-to-8-ribosome peak line (polysome integrity): 0
Polysome integrity; 0.02 μM
  angle of disome-to-8-ribosome peak line (polysome integrity): −18
Polysome integrity; 0.05 μM
  angle of disome-to-8-ribosome peak line (polysome integrity): −20
Polysome integrity; 0.1 μM
  angle of disome-to-8-ribosome peak line (polysome integrity): −30
Polysome integrity; 0.2 μM
  angle of disome-to-8-ribosome peak line (polysome integrity): −40
Core NMD factors
  expression of core NMD factors: no changes in their expression
